Type in all cases: biochemical
In assay [1] the target is PRMT3 (Homo sapiens, UniProt O60678). Description: PRMT panel selectivity test, PRMT3. Particulars: AlphaLISA. How it is done:
(§1) This experiment was assayed in a buffer prepared on the same day consisting of 10 mMTirs-HCl (pH=8.0), […] and 1 mM DTT. The compounds were prepared to the highest inhibitor concentration ultimately required in the 100× reaction with 100% DMSO and then transferred to one well of a 384-well Echo plate (Echo-eligible 384-well polypropylene microplates 2.0, transparent, flat-bottomed) and sequentially diluted in the next well with a 3-fold dilution of 100% DMSO, and so on, with a total of 10 concentrations based on Precision. 100% DMSO was added to two empty wells as control well without compound and control well without enzyme in the same 384-well Echo plate. 100 nL of compound was transferred from each well of the 384-well Echo plate to a 384-well assay plate (OptiPlate (384-well, white)) via the Echo 550 liquid processor. For wells with compounds and control well without compound, a mixture containing PRMT1 enzyme (5 uL) was added to the 384-well assay plate. For control well without enzyme, a mixture containing test buffer (5 uL) was added instead. The compounds were allowed to incubate with PRMT3 for 15 minutes at room temperature, and then a mixture containing cold SAM and peptide (5 uL) was added to start the reaction (final volume=10 uL). The final concentrations of the components were as follows: 0.1 nM for PRMT3, 15 uM for SAM, 0.05 uM for peptide, and 1% DMSO. After 60 min of incubation at room temperature, the reaction was terminated by the addition of donor and acceptor magnetic beads (15 uL) with a final concentration of 10 ug/mL diluted with AlphaLISA Epigenetics Buffer. The 384-well assay plate was incubated at room temperature for 60 min and the relative fluorescence units (RFU) were nextly determined using a multi-mode plate reader in Alpha mode (Ex680/Em615).
(§2) Curve fitting: the raw data were copied from Reader and the inhibition values were calculated in Excel by equation (1). […]

The target in assay [2] is T1, PRMT4 (Homo sapiens, UniProt Q86X55).
T1 sequence (Q86X55 1-608): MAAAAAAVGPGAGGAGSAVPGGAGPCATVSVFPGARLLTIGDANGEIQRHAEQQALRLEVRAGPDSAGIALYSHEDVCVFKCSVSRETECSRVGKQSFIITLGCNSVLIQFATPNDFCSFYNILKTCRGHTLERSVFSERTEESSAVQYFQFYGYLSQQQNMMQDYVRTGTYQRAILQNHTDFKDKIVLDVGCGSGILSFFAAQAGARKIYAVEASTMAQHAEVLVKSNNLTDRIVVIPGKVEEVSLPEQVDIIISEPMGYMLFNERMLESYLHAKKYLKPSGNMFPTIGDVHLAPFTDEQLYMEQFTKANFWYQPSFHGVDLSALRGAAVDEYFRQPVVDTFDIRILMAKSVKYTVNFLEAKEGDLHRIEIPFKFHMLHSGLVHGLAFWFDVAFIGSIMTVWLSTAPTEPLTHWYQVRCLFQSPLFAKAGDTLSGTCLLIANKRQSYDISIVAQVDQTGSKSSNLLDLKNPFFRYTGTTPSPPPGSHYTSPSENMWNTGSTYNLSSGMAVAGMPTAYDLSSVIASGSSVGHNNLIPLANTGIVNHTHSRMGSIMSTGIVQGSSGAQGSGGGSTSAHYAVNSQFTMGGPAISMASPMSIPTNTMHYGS
The assay can be described thus: PRMT panel selectivity test, PRMT4. How it is done: [The procedure below names another target; the source says it served here with some conditions changed.] as §1, §2

The target of assay [3] is PRMT5 (Homo sapiens, UniProt O14744). Description: PRMT panel selectivity test, PRMT5. How it is done:
[The procedure below names another target; the source says it served here with some conditions changed.] PRMT1 enzyme activity test were performed in a buffer prepared on the same day 5 consisting of 10 mMTirs-HCl (pH=8.0), 0.01% Tween-20 and 1 mM DTT. The compounds were prepared to the highest inhibitor concentration ultimately required in the 100× reaction with 100% DMSO and then transferred to one well of a 384-well Echo plate (Echo-eligible 384-well polypropylene microplates 2.0, transparent, flat-bottomed) and sequentially diluted in the next well with a 3-fold dilution of 100% DMSO, and so on, with a total of 10 concentrations based on Precision. 100% DMSO was added to two empty wells to serve as control well without compound and control well without enzyme in the same 384-well Echo plate. 250 nL of compound was transferred from each well of the 384-well Echo plate to a 384-well assay plate (384-well polypropylene storage microplate) via the Echo 550 liquid processor. For wells with compounds and control well without compound, a mixture (15 uL) containing PRMT1 enzyme was added to the 384-well assay plate. For control wells without enzyme, the mixture containing the assay buffer (15 uL) was added instead. The compounds were allowed to incubate with PRMT1 for 15 minutes at room temperature, and then a mixture containing ^3H-SAM and peptide (10 uL) was added to start the reaction (final volume=25 uL). […] After 120 min of incubation, the assay was terminated by the addition of non-radiolabeled SAM (5 uL) to a final concentration of 125 uM, which diluted 3H-SAM to a level at which its incorporation into the peptide substrate was no longer detected. […] Plates were read on a microplate counter (MicroBeta2) to measure the amount of ^3H-labeled peptide bound to the surface of the detection plate, measured in counts per minute (cpm).
The raw data were copied from the Reader and the inhibition values were calculated in Excel by Equation (1), Equation (1): Inh %=(CPMmax−CPMcmpd)/(CPMmax−CPMmin)*100, wherein the Max signal was obtained from the enzyme-substrate interaction and the Min signal was obtained from the substrate. […]

Assay [4] deals with PRMT8 (Homo sapiens, UniProt Q9NR22). The assay can be described thus: PRMT panel selectivity test, PRMT8. The method, then: [The procedure below names another target; the source says it served here with some conditions changed.] as §1, §2

From US20240307409A1, “ARGININE METHYLTRANSFERASE INHIBITOR AND USE THEREOF” (Cytosinlab Therapeutics Co., Ltd., priority 2021, published 2024) come the findings set out here.

Structures are written as SMILES.

Chain of PRMT8 (Q9NR22 whole entry): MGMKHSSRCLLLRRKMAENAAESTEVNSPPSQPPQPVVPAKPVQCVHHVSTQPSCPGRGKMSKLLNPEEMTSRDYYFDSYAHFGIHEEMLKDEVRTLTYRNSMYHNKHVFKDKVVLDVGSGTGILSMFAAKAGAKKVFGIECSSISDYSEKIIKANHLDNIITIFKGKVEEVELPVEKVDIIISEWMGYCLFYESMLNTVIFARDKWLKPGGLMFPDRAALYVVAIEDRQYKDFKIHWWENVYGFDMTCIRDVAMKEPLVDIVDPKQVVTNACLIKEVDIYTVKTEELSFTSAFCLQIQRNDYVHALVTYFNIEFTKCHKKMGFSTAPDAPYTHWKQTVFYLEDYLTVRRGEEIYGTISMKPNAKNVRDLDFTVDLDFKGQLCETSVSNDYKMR
Chain of PRMT3 (O60678 whole entry): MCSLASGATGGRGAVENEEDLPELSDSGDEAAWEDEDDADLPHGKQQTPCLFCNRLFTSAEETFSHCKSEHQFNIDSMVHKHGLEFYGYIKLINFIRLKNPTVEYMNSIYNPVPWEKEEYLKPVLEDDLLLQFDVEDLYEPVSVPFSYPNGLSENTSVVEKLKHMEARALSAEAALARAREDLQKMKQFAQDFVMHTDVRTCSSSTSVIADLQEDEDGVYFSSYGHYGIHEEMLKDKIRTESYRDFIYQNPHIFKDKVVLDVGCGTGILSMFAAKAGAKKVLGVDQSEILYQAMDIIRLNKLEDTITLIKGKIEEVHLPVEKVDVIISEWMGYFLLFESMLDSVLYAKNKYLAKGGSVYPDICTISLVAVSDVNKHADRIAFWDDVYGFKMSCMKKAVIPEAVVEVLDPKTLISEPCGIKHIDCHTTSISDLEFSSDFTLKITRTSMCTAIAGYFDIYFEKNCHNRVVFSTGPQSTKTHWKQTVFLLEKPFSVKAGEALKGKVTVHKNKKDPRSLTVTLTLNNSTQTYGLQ
Chain of PRMT5 (O14744 whole entry, species assumed): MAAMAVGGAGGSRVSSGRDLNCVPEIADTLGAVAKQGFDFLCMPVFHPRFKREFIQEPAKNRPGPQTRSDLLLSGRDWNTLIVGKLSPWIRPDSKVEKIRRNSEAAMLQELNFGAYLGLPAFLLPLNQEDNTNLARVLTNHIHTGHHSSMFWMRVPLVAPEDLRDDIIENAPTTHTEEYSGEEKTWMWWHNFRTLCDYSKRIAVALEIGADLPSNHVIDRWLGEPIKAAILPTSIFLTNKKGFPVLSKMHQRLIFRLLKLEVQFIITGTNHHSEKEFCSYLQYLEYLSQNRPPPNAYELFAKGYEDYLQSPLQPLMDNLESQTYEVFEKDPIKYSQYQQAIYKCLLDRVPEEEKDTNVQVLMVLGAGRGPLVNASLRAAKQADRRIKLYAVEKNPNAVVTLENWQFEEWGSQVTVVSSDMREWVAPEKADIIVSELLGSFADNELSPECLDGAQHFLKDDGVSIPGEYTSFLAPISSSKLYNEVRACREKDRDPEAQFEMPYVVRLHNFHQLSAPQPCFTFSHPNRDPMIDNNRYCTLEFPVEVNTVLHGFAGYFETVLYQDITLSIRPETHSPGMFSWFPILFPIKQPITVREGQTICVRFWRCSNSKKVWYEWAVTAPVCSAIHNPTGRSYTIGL
Chain of PRMT5 (Q9BQA1 whole entry partner, species assumed): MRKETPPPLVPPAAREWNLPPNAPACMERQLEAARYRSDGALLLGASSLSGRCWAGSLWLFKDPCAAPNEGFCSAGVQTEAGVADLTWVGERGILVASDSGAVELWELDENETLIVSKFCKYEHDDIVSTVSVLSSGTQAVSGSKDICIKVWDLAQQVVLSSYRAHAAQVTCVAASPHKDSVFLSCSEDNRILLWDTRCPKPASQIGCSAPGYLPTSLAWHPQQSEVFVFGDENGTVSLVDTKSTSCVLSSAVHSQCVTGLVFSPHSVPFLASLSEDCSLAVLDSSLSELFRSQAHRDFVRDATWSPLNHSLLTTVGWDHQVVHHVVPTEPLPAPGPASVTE

For the compound `CNCCN(C)Cc1ccccc1C1CCN(c2ccccc2)CC1` [P023], the IC50 in assay [1] was < 50 nM; in assay [2], < 50 nM; in assay [3] it was ≥ 10000 nM; in assay [4] it was < 50 nM.
As to `CNCCN(C)Cc1ncccc1N1CCc2ccccc2CC1` [P118], the IC50 was 50 to 500 nM in assay [1], 50 to 500 nM in assay [2], ≥ 10000 nM in assay [3] and < 50 nM in assay [4].
Consider `CCOCC1(COCC)CCC(c2cccnc2CN(C)CCNC)CC1` [P207], for which the IC50 in assay [1] is 50 to 500 nM; in assay [2], < 50 nM; in assay [3] it was ≥ 10000 nM; in assay [4], < 50 nM.

By IC50 is commonly meant the concentration at which inhibition is half-maximal. Lower therefore signals greater potency in that assay.
